{"source": "patent US6689362B1", "about": "“Method for treating T-lineage leukemias and lymphomas using a CD7-specific monoclonal antibody (TXU-7) linked to the pokeweed antiviral protein (PAP)” (priority 1997, dated 2004)", "test_system": "clinical HIV-1 isolates (AT-101, AT-328, AT-332)", "experiment": "Hu-PBL-SCID mouse model of human AIDS (HIV-PCR and HIV-culture)", "type": "in vivo", "key": {"[1]": {"details": "1 mg/ml in water, average 200 mg/kg/day"}}, "note": "“And” between values parts separate entries of the source, which are not always exact repeats. Equal entries are not always repeated."}
{"compound": "Cc1cn([C@H]2C[C@H](N=[N+]=[N-])[C@@H](CO)O2)c(=O)[nH]c1=O", "note": "[AZT, zidovudine]", "values": [{"measurement": "Cx+", "setting": "[1]", "value": "4/8"}, {"measurement": "PCR+", "setting": "[1]", "value": "4/10"}, {"measurement": "PCR+ Cx+", "setting": "[1]", "value": "4 and 4/8"}, {"measurement": "PCR+ CxND", "setting": "[1]", "value": "0/2"}, {"measurement": "PCR+ Cx−", "setting": "[1]", "value": "3 and 4/8"}, {"measurement": "PCR− Cx−", "setting": "[1]", "value": "0/8"}, {"measurement": "mice tested HIV-1 negative", "setting": "[1]", "value": "3 of 10"}, {"measurement": "gp120 on CD7 cells from peritoneal cavities (flow cytometry)", "setting": "treated Hu-PBL-SCID mice", "value": "presence of gp120 on CD7 cells"}]}
